Test results: patent publication US20250171484A1, “METHOD FOR PRODUCING DISACCHARIDE USING BETA-GLUCOSIDASE AND COFACTOR THEREOF AND COMPOSITION FOR INDUCING ENZYME PRODUCTION OF STRAIN OF GENUS TRICHODERMA COMPRISING PRODUCED DISACCHARIDE” (CJ CheilJedang Corporation, priority 2021, published 2025)

Tested on: β-glucosidase (SEQ ID NO: 1)
Test: Disaccharide production from glucose by beta-glucosidase with added divalent metal ion
Assay type: biochemical, Trichoderma reesei
Conditions: for Concentration (g/L) Cellobiose / Concentration (g/L) Gentiobiose / Concentration (g/L) Isomaltose / Concentration (g/L) Maltose / Concentration (g/L) Sophorose / Concentration (g/L) Trehalose / Concentration (g/L) Total: 1 mM ion, 60° C.; for Concentration (g/L) Total: total equals gentiobiose + sophorose; for Increase/decrease rate (%) Gentiobiose / Increase/decrease rate (%) Sophorose / Increase/decrease rate (%) Total: versus no ion added
Method: Glucose powder with a purity of 95% or more (hydrous crystalline glucose, Daejung Chemicals & Metals) was dissolved using steam to prepare 40 kg of a glucose solution with a concentration of 71% w/w. 0.3 kg of β-glucosidase (SEQ ID NO: 1) was added at a concentration of 1,650 U/ml to the prepared glucose solution, allowed to stand at 60° C. for 7 days to 21 days to prepare a composition comprising disaccharides (Treated Glucose Syrup, TGS). 0.3 kg of β-glucosidase (same as in Example 1) was added to the glucose solution of Example 1 at a concentration of 1,650 U/ml, and 1 mM of divalent ions [manganese ion (Mn^2+), magnesium ion (Mg^2+), zinc ion (Zn^2+), and copper ion (Cu^2+) each] was further added thereto, and allowed to stand at 60° C. for 7 days to 21 days to prepare a composition containing disaccharides. In the compositions prepared in Examples 1 and 2, the production concentration (g/L) and increase/decrease rate (%) of the disaccharides, i.e. trehalose, isomaltose, maltose, cellobiose, gentiobiose, and sophorose were measured, and the results are shown in Table 1 and Table 2 below. The production concentration was analyzed using a Bio-LC system (Dionex ICS-3000, Sunnyvale, CA, United States) equipped with an electrochemical detector and a CarboPac PAI column.

Row | Concentration (g/L) Cellobiose (standing period 7 days) | Concentration (g/L) Gentiobiose (standing period 7 days) | Concentration (g/L) Isomaltose (standing period 7 days) | Concentration (g/L) Maltose (standing period 7 days) | Concentration (g/L) Sophorose (standing period 7 days) | Concentration (g/L) Trehalose (standing period 7 days) | Concentration (g/L) Total (standing period 7 days) | Increase/decrease rate (%) Gentiobiose (standing period 7 days) | Increase/decrease rate (%) Sophorose (standing period 7 days) | Increase/decrease rate (%) Total (standing period 7 days) | Concentration (g/L) Cellobiose (standing period 14 days) | Concentration (g/L) Gentiobiose (standing period 14 days) | Concentration (g/L) Isomaltose (standing period 14 days) | Concentration (g/L) Maltose (standing period 14 days) | Concentration (g/L) Sophorose (standing period 14 days) | Concentration (g/L) Trehalose (standing period 14 days) | Concentration (g/L) Total (standing period 14 days) | Increase/decrease rate (%) Gentiobiose (standing period 14 days) | Increase/decrease rate (%) Sophorose (standing period 14 days) | Increase/decrease rate (%) Total (standing period 14 days) | SMILES | also measured
1 | 13.1 g/L | 64.3 g/L | 6.7 g/L | 13.7 g/L | 10.8 g/L | 21.1 g/L | 75.1 g/L | 10% | 56.8% | 15% | 15.6 g/L | 69.4 g/L | 10.6 g/L | 14.6 g/L | 17.4 g/L | 15.3 g/L | 86.8 g/L | −1.6% | 36.5% | 4.2% | [Mg+2] [Mg^2+, magnesium ion (Mg^2+)] | Concentration (g/L) Cellobiose (standing period 21 days): 15.4 g/L; Concentration (g/L) Gentiobiose (standing period 21 days): 74.6 g/L; Concentration (g/L) Isomaltose (standing period 21 days): 13.2 g/L; Concentration (g/L) Maltose (standing period 21 days): 15.4 g/L; Concentration (g/L) Sophorose (standing period 21 days): 23.1 g/L; Concentration (g/L) Trehalose (standing period 21 days): 14.8 g/L; Concentration (g/L) Total (standing period 21 days): 97.7 g/L; Increase/decrease rate (%) Gentiobiose (standing period 21 days): −9.8%; Increase/decrease rate (%) Sophorose (standing period 21 days): 45.3%; Increase/decrease rate (%) Total (standing period 21 days): −0.9%
2 | 14.5 g/L | 69.5 g/L | 8.6 g/L | 16.8 g/L | 11.6 g/L | 21.7 g/L | 81.1 g/L | 18.9% | 67.8% | 24.1% | 15.4 g/L | 78 g/L | 12.4 g/L | 16.1 g/L | 16.5 g/L | 14.6 g/L | 94.5 g/L | 10.5% | 29.2% | 13.4% | [Mn+2] [Mn^2+, manganese ion (Mn^2+)] | Concentration (g/L) Cellobiose (standing period 21 days): 15.5 g/L; Concentration (g/L) Gentiobiose (standing period 21 days): 86.5 g/L; Concentration (g/L) Isomaltose (standing period 21 days): 15.7 g/L; Concentration (g/L) Maltose (standing period 21 days): 17.1 g/L; Concentration (g/L) Sophorose (standing period 21 days): 23.6 g/L; Concentration (g/L) Trehalose (standing period 21 days): 14.1 g/L; Concentration (g/L) Total (standing period 21 days): 110.2 g/L; Increase/decrease rate (%) Gentiobiose (standing period 21 days): 4.6%; Increase/decrease rate (%) Sophorose (standing period 21 days): 48.7%; Increase/decrease rate (%) Total (standing period 21 days): 11.7%
3 | 15.1 g/L | 71.7 g/L | 8 g/L | 18.7 g/L | 13.3 g/L | 19.4 g/L | 85 g/L | 22.8% | 92.2% | 30.1% | 15.2 g/L | 82.1 g/L | 10.3 g/L | 15.9 g/L | 17 g/L | 12.6 g/L | 99.1 g/L | 16.3% | 33.5% | 18.9% | [Cu+2] [Cu^2+, copper ion (Cu^2+)] | Concentration (g/L) Cellobiose (standing period 21 days): 15.5 g/L; Concentration (g/L) Gentiobiose (standing period 21 days): 92.4 g/L; Concentration (g/L) Isomaltose (standing period 21 days): 12.4 g/L; Concentration (g/L) Maltose (standing period 21 days): 16.8 g/L; Concentration (g/L) Sophorose (standing period 21 days): 24.3 g/L; Concentration (g/L) Trehalose (standing period 21 days): 13 g/L; Concentration (g/L) Total (standing period 21 days): 116.7 g/L; Increase/decrease rate (%) Gentiobiose (standing period 21 days): 11.7%; Increase/decrease rate (%) Sophorose (standing period 21 days): 53.0%; Increase/decrease rate (%) Total (standing period 21 days): 18.4%
4 | 14.8 g/L | 69.9 g/L | 7.3 g/L | 15.8 g/L | 12.6 g/L | 22.2 g/L | 82.5 g/L | 19.7% | 82.8% | 26.3% | 14.9 g/L | 81 g/L | 9.8 g/L | 14.3 g/L | 16.4 g/L | 14.3 g/L | 97.3 g/L | 14.7% | 28.4% | 16.8% | [Zn+2] [Zn^2+, zinc ion (Zn^2+)] | Concentration (g/L) Cellobiose (standing period 21 days): 15 g/L; Concentration (g/L) Gentiobiose (standing period 21 days): 92 g/L; Concentration (g/L) Isomaltose (standing period 21 days): 12.5 g/L; Concentration (g/L) Maltose (standing period 21 days): 15.2 g/L; Concentration (g/L) Sophorose (standing period 21 days): 23.4 g/L; Concentration (g/L) Trehalose (standing period 21 days): 14.5 g/L; Concentration (g/L) Total (standing period 21 days): 115.4 g/L; Increase/decrease rate (%) Gentiobiose (standing period 21 days): 11.3%; Increase/decrease rate (%) Sophorose (standing period 21 days): 47.1%; Increase/decrease rate (%) Total (standing period 21 days): 17%
